Key:
Green foxtail [1] = test: Test D green foxtail; assay type: in vivo; details: Postemergence, 0 to 100 scale, 0 no injury, 100 complete control
purple nutsedge = test: Test D purple nutsedge; assay type: in vivo, Cyperus rotundus; details: Postemergence, 0 to 100 scale
Green foxtail [2] = test: Test D green foxtail; assay type: in vivo; details: Rate 250 g/ha; Postemergence; 0 to 100 scale
sandbur = test: Test D sandbur; assay type: in vivo, Cenchrus echinatus; details: Postemergence, 0 to 100 scale
goosegrass = test: Test D goosegrass; assay type: in vivo, Eleusine indica; details: Postemergence, 0 to 100 scale
Johnson grass = test: Test D Johnson grass; assay type: in vivo, Sorghum halepense; details: Postemergence, 0 to 100 scale
dallisgrass = test: Test D dallisgrass; assay type: in vivo, Paspalum dilatatum; details: Postemergence, 0 to 100 scale
Green foxtail [3] = test: Test D green foxtail; assay type: in vivo; details: Rate 250 g/ha; Postemergence; 0 to 100 scale; remark: listed apart in the source
windgrass = test: Test E windgrass; assay type: in vivo, Apera spica-venti; details: Postemergence
Summary of the method: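 Visual evaluation versus untreated controls after about 21 to 28 days in the greenhouse. Compound was in a surfactant-containing non-phytotoxic solvent; postemergence plants were treated at the 1- to 4-leaf stage, grown in a 60:40 sandy loam and potting mix blend.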

itchgrass = test: Test D itchgrass; assay type: in vivo, Rottboellia exaltata; details: Postemergence, 0 to 100 scale
tall mallow = test: Test D tall mallow; assay type: in vivo, Malva sylvestris; details: Postemergence, 0 to 100 scale
Green foxtail [4] = test: Test D green foxtail; assay type: in vivo; details: Postemergence, 0 to 100 scale, 0 no injury, 100 complete control; remark: listed apart in the source
[5] = tested on: Chenopodium album (CHEAL); test: Test F preemergence, alone and in mixture with rimsulfuron, CHEAL; assay type: in vivo; details: 21 days after treatment, 0-100 scale
Protocol: (§1) Abutilon theophrasti (ABUTH), Chenopodium album (CHEAL), Amaranthus rudis (AMATA), Setaria faberii (SETFA), Panicum dichotomiflorum (PANDI), and Digitaria sanguinalis (DIGSA) were grown from seed in pots of an artificial potting mixture in a greenhouse. Compounds of the present invention were applied at 70 and 105 g ai/ha preemergence. Rimsulfuron was applied at 8.8 and 17.5 g ai/ha. Mixtures of the compounds of the present invention and rimsulfuron were also applied.
(§2) Following application, the plants were maintained by watering as needed. A fertilizer solution of Peter's 20-20-20 (10 pounds/5 gallons of water) plus Sprint 330, a Iron Chelate micronutrient, (113.5 grams/5 gallons of water) was injected into the water with an Anderson fertilizer injection system to provide approximately 219 ppm of nitrogen with each watering. Artificial lighting was used to supplement natural light to produce a 14 hour photoperiod and: an additional one hour light period was used between 1:00 am to 2:00 am for a night interruption. Greenhouse temperatures were targeted for 27° C. in the day and 21° C. at night. At 21 days after treatment, all plants were evaluated for injury as compared to control plants that were sprayed only with non-phytotoxic solvent.
(§3) Colby's equation was used to calculate the expected additive herbicidal effect of the mixtures of Compound 21 and the mixture partners listed above. […]

Amaranthus rudis (AMATA) = test: Test F preemergence, alone and in mixture with rimsulfuron, AMATA; assay type: in vivo; details: 21 days after treatment, 0-100 scale
Protocol: as §1, §2, §3

maize hybrid P33G26 = test: Test G maize injury with safener-treated seed; details: for Mean plant response rating, maize: 28 days after application
Summary of the method: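 Maize hybrid P33G26 seed, treated with dichlormid, fenchlorazole-ethyl or naphthalic anhydride or left untreated, was sown in soil pots, then sprayed pre-emergence with several compound rates at 310 L/ha. Plants grew in a greenhouse (14 h day, about 27/24 °C day/night), with 4–5 replicates. Injury was scored visually against untreated controls 28 days after application.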

bermuda-grass = test: Test D bermudagrass; assay type: in vivo, Cynodon dactylon; details: Postemergence, 0 to 100 scale
scentless chamomile = test: Test E scentless chamomile; assay type: in vivo, Matricaria inodora; details: Preemergence
[6] = Rate 16 g/ha, 0 no injury, 100 complete control
[7] = Rate 32 g/ha, 0 no injury, 100 complete control
[8] = Rate 64 g/ha, 0 no injury, 100 complete control
[9] = Rate 125 g/ha, 0 no injury, 100 complete control
[10] = Alone: Cmpd. rate 70, Rimsulfuron 0
[11] = Alone: Cmpd. rate 105, Rimsulfuron 0

CC(C)N(C(=O)n1oc(=O)n(C(C)C)c1=O)c1ccc(F)cc1 [Compound 131]
Plant response rating, Green foxtail (Green foxtail [1]; Rate 16 g/ha): 0
Plant response rating, Green foxtail (Green foxtail [1]; Rate 32 g/ha): 60
Plant response rating, Purple nutsedge (purple nutsedge; [6]): 0
Plant response rating, Purple nutsedge (purple nutsedge; [7]): 0
Purple nutsedge plant response rating (purple nutsedge; [8]): 0
Purple nutsedge plant response rating (purple nutsedge; [9]): 30
Plant response rating, Purple nutsedge (purple nutsedge; Rate 250 g/ha): 100
Plant response rating, Green foxtail (Green foxtail [2]): 100
Plant response rating, Sandbur (sandbur; [6]): 0
Plant response rating, Sandbur (sandbur; [7]): 0
Sandbur plant response rating (sandbur; [8]): 100
Sandbur plant response rating (sandbur; [9]): 100
Plant response rating, Sandbur (sandbur; Rate 250 g/ha): 100
Plant response rating, Goosegrass (goosegrass; [6]): 90
Plant response rating, Goosegrass (goosegrass; [7]): 100
Plant response rating, Goosegrass (goosegrass; [8]): 100
Plant response rating, Goosegrass (goosegrass; [9]): 100
Plant response rating, Goosegrass (goosegrass; Rate 250 g/ha): 100
Plant response rating Johnsongrass (Johnson grass; [6]): 0
Plant response rating Johnsongrass (Johnson grass; [7]): 0
Plant response rating Johnsongrass (Johnson grass; [8]): 30
Plant response rating Johnsongrass (Johnson grass; [9]): 60
Plant response rating Johnsongrass (Johnson grass; Rate 250 g/ha): 100
Plant response rating, Dallisgrass (dallisgrass; [6]): 20
Plant response rating, Dallisgrass (dallisgrass; [7]): 60
Plant response rating, Dallisgrass (dallisgrass; [8]): 100
Plant response rating, Dallisgrass (dallisgrass; [9]): 100
Plant response rating, Dallisgrass (dallisgrass; Rate 250 g/ha): 100
Plant response rating, Green foxtail (Green foxtail [3]): 100
Plant response rating, Windgrass (windgrass; Rate 62 g/ha, 0 to 100 scale): 85
Windgrass plant response rating (windgrass; Rate 250 g/ha, 0 to 100 scale where 0 is no effect and 100 is complete control): 90
Plant response rating, Itchgrass (itchgrass; [6]): 0
Plant response rating, Itchgrass (itchgrass; [7]): 0
Plant response rating, Itchgrass (itchgrass; [8]): 20
Plant response rating, Itchgrass (itchgrass; [9]): 100
Plant response rating, Itchgrass (itchgrass; Rate 250 g/ha): 100
Plant response rating, Tall Mallow (tall mallow; [6]): 0
Plant response rating, Tall Mallow (tall mallow; [7]): 30
Tall Mallow plant response rating (tall mallow; [8]): 40
Tall Mallow plant response rating (tall mallow; [9]): 90
Plant response rating, Tall Mallow (tall mallow; Rate 250 g/ha): 100
Plant response rating, Green foxtail (Green foxtail [4]; Rate 64 g/ha): 100
Plant response rating, Green foxtail (Green foxtail [4]; Rate 125 g/ha): 100
CHEAL Observed [5, 10]: 60%
CHEAL Observed [5, 11]: 95%
AMATA Observed (Amaranthus rudis (AMATA); [10]): 50%
AMATA Observed (Amaranthus rudis (AMATA); [11]): 40%
Mean plant response rating, maize (maize hybrid P33G26; Safener Dichlormid (seed treatment), Rate 70 g ai/ha): 3 percent control
Mean plant response rating, maize (maize hybrid P33G26; Safener Dichlormid (seed treatment), Rate 140 g ai/ha): 3 percent control
Mean plant response rating, maize (maize hybrid P33G26; Safener Dichlormid (seed treatment), Rate 280 g ai/ha): 3 percent control
Mean plant response rating, maize (maize hybrid P33G26; Safener Dichlormid (seed treatment), Rate 560 g ai/ha): 40 percent control
Mean plant response rating, maize (maize hybrid P33G26; Safener Fenchlorazole-ethyl (seed treatment), Rate 70 g ai/ha): 85 percent control
Mean plant response rating, maize (maize hybrid P33G26; Safener Fenchlorazole-ethyl (seed treatment), Rate 140 g ai/ha): 91 percent control
Mean plant response rating, maize (maize hybrid P33G26; Safener Fenchlorazole-ethyl (seed treatment), Rate 280 g ai/ha): 92 percent control
Mean plant response rating, maize (maize hybrid P33G26; Safener Fenchlorazole-ethyl (seed treatment), Rate 560 g ai/ha): 96 percent control
Mean plant response rating, maize (maize hybrid P33G26; Safener None, Rate 70 g ai/ha): 80 percent control
Mean plant response rating, maize (maize hybrid P33G26; Safener None, Rate 140 g ai/ha): 88 percent control
Mean plant response rating, maize (maize hybrid P33G26; Safener None, Rate 280 g ai/ha): 91 percent control
Mean plant response rating, maize (maize hybrid P33G26; Safener None, Rate 560 g ai/ha): 95 percent control
Mean plant response rating, maize (maize hybrid P33G26; Safener naphthalic anhydride (seed treatment), Rate 140 g ai/ha): 0 percent control
Injury to maize (maize hybrid P33G26; absence of any safener, rates ranging from 70 to 560 g/ha): severely injurious to maize
Plant response rating, Bermudagrass (bermuda-grass; [6]): 30
Plant response rating, Bermudagrass (bermuda-grass; [7]): 90
Plant response rating, Bermudagrass (bermuda-grass; [8]): 100
Plant response rating, Bermudagrass (bermuda-grass; [9]): 100
Plant response rating, Bermudagrass (bermuda-grass; Rate 250 g/ha): 100

CC(C)N(C(=O)n1oc(=O)n(C(C)C)c1=O)c1ccc(Cl)cc1 [Compound 114]
Plant response rating, Scentless chamo (scentless chamomile; Rate 125 g/ha, 0 to 100 scale (0 no effect, 100 complete control)): 30
Plant response rating, Scentless chamo (scentless chamomile; Rate 250 g/ha, 0 to 100 scale): 30
Plant response rating, Scentless chamo (scentless chamomile; Rate 500 g/ha, 0 to 100 scale where 0 is no effect and 100 is complete control): 10
